Among the data in patent publication US12180226B2, “Spirotricycle RIPK1 inhibitors and methods of uses thereof” (Merck Sharp & Dohme LLC, priority 2021, dated 2024) are EC50 values, retold here.

pEC50: −log10 of the molar value. Structures can show the parent of a compound that is named as a salt.

A word on the pEC50: it is −log10 of the EC50, conventionally taken in molar units.

The experiment has as its target RIPK1 (recombinant GST-RIPK1 kinase domain, residues 1-327) (Homo sapiens (Human), UniProt Q13546). The experiment is described as follows: RIPK1-ADP-Glo Enzymatic Assay. The experiment is classed as biochemical. Particulars: ADP-Glo; 25 nM GST-RIPK1, 300 μM ATP; assay lower limit ~25 nM; read-out: RIPK1 V0 Ec50. The method, then:
RIPK1-ADP-Glo Enzymatic Assay
The enzymatic activity of RIPK1 is measured using an assay derived from ADP-Glo kit (TMPromega), which provides a luminescent-based ADP detection system. Specifically, the ADP generated by RIPK1 kinase is proportionally detected as luminescent signals in a homogenous fashion. In this context, the assessment of the inhibitory effect of small molecules (EC50) is measured by the effectiveness of the compounds to inhibit the ATP to ADP conversion by RIPK1.
In this assay, the potency (EC50) of each compound was determined from a ten-point (1:3 serial dilution; top compound concentration of 100000 nM) titration curve using the following outlined procedure. The assay bottom or lower limit of confidence is ˜25 nM. To each well of a white ProxiPlus 384 well-plate, 30 nL of compound (1% DMSO in final assay volume of 3 μL) was dispensed, followed by the addition of 2 μL of 1×assay buffer (25 mM Hepes 7.3, 20 mM MgCl2, 50 mM NaCl, 1 mM DTT, 0.005% Tween20, and 0.02% BSA) containing 37.5 nM of GST-RIPK1 (recombinant GST-RIPK1 kinase domain (residues 1-327) enzyme produced from baculovirus-transfected Sf21 cells: MW=62 kDa). Plates were placed in an ambient temperature humidified chamber for a 30-minute pre-incubation with compound. Subsequently, each reaction was initiated by the addition of 1 μL 1×assay buffer containing 900 μM ATP and […] dephosphorylated-MBP substrate. The final reaction in each well of 3 μL consists of 25 nM of GST-RIPK1, 300 μM ATP, and 3 μM dephosphorylated-MBP. Kinase reactions were allowed to proceed for 150 minutes prior to adding ADP-Glo reagents per Promega's outlined kit protocol. Dose-response curves were generated by plotting percent effect (% product conversion; Y-axis) vs. Log10 compound concentrations (X-axis). EC50 values were calculated using a non-linear regression, four-parameters sigmoidal dose-response model.

Sequence of RIPK1 (recombinant GST-RIPK1 kinase domain, residues 1-327) (Q13546 1-327): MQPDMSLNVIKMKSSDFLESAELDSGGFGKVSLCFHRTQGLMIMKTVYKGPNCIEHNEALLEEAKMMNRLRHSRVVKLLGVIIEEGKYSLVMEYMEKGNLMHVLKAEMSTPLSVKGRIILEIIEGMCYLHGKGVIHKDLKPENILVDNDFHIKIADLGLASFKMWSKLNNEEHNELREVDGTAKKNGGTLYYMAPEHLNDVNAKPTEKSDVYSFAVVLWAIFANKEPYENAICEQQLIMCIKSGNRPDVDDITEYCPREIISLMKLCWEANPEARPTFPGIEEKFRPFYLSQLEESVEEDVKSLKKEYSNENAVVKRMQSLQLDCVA

For `O=C(c1ccon1)N1CCC2(CC1)O[C@@H]1CC[C@@H](c3cc(F)cc(F)c3)N1C2=O` [Example 5.45], the pEC50 was 7.51.

Turning to `O=C(c1ccc(-n2nccn2)cc1)N1CCC2(CC1)O[C@@H]1CC[C@@H](c3cc(F)cc(F)c3)N1C2=O` [Example 6.21], the pEC50 is 6.06.

As for `N#Cc1cccc(C(=O)N2CCC3(CC2)O[C@@H]2CC[C@@H](c4ccccc4)N2C3=O)c1` [Example 6.153, 3-[(5′S,7a′R)-3′-oxo-5′-phenyltetrahydro-1H,3′H-spiro[piperi-dine-4,2′-pyrrolo[2,1-b][1,3]oxazole]-1-carbonyl]benzonitrile], the negative logarithm of the EC50 (pEC50) is > 7.60.

As for `N#Cc1cncc([C@@H]2CC[C@H]3OC4(CCN(c5ccnc6c(F)cnn56)CC4)C(=O)N32)c1` [Example 4.127, 5-[(5′S,7a′R)-1-(3-fluoropyrazolo[1,5-a]pyrimidin-7-yl)-3′-oxotetrahydro-3′H-spiro[piperidine-4,2′-pyrrolo[2,1-b] [1,3]oxazol]-5′-yl]pyridine-3-carbonitrile], the pEC50 was > 7.60.

With `CC(C)NC(=O)c1nc(N2CCC3(CC2)O[C@@H]2CC[C@@H](c4cc(F)cc(F)c4)N2C3=O)ncc1F` [Example 7.14, 2-[(5′S,7a′R)-5′-(3,5-difluorophenyl)-3′-oxotetrahydro-1H,3′H-spiro[piperidine-4,2′-pyrrolo[2,1-b][1,3]oxazol]-1-yl]-5-fluoro-N-(propan-2-yl)pyrimidine-4-carboxamide], the pEC50 is 7.16.

Consider `O=C1N2[C@@H](CC[C@H]2c2ccccc2F)OC12CN(c1cc(-c3ccccc3)no1)C2` [Example 11.35, (5′S,7a′R)-5′-(2-fluorophenyl)-1-(3-phenyl-1,2-oxazol-5-yl)tetrahydro-3′H-spiro[azetidine-3,2′-pyrrolo[2,1-b][1,3]oxazol]-3′-one], for which the pEC50 was 7.46.

In the case of `O=C1CCc2nc(N3CCC4(CC3)O[C@@H]3CC[C@@H](c5ccccc5)N3C4=O)ccc21` [Example 4.196, (5′S,7a′R)-1-(5-oxo-6,7-dihydro-5H-cyclopenta[b]pyridin-2-yl)-5′-phenyltetrahydro-3′H-spiro[piperidine-4,2′-pyrrolo[2,1-b] [1,3]oxazol]-3′-one], the pEC50 was 7.50.

Regarding `O=C(c1ccn2nncc2c1)N1CCC2(CC1)O[C@@H]1CC[C@@H](c3cc(F)cc(F)c3)N1C2=O` [Example 6.22, (5′S,7a′R)-5′-(3,5-difluorophenyl)-1-([1,2,3]triazolo[1,5-a]pyridine-5-carbon-yl)tetrahydro-3′H-spiro[piperidine-4,2′-pyrrolo[2,1-b][1,3]oxazol]-3′-one], the pEC50 was 7.52.

For the compound `COc1ccc2oc(N3CCC4(CC3)O[C@@H]3CC[C@@H](c5ccccc5)N3C4=O)nc2c1` [Example 4.160, (5′S,7a′R)-1-(5-methoxy-1,3-benzoxazol-2-yl)-5′-phenyltetrahydro-3′H-spiro[piperidine-4,2′-pyrrolo[2,1-b] [1,3]oxazol]-3′-one], the pEC50 is 7.11.

Turning to `N#Cc1ccnc(N2CCC3(CC2)O[C@@H]2CC[C@@H](c4cc(F)cc(F)c4)N2C3=O)c1` [Example 4.8, 2-[(5′S,7a′R)-5′-(3,5-difluorophenyl)-3′-oxotetrahydro-1H,3′H-spiro[piperidine-4,2′-pyrrolo[2,1-b] [1,3]oxazol]-1-yl]pyridine-4-carbonitrile], the pEC50 is > 7.60.

As to `COc1cc(N2CCC3(CC2)O[C@@H]2CC[C@@H](c4ccccc4)N2C3=O)ncc1C#N` [Example 4.220, 4-methoxy-6-[(5′S,7a′R)-3′-oxo-5′-phenyltetrahydro-1H,3′H-spiro[piperidine-4,2′-pyrrolo[2,1-b] [1,3]oxazol]-1-yl]pyridine-3-carbonitrile], the pEC50 is > 7.60.

With `O=C1N2[C@@H](CC[C@H]2C2CCCC2)OC12CCN(c1ccnc3c(F)cnn13)CC2` [Example 4.88, (5′S,7a′R)-5′-cyclopentyl-1-(3-fluoropyrazolo [1,5-a]pyrimidin-7-yl)tetrahydro-3′H-spiro[piperidine-4,2′-pyrrolo[2,1-b]oxazol]-3′-one, TFA salt], the pEC50 is > 7.60.

As to `Cc1cc2c(nc1N1CCC3(CC1)O[C@@H]1CC[C@@H](c4ccccc4)N1C3=O)CNC2=O` [Example 4.187, (5′S,7a′R)-1-(3-methyl-5-oxo-6,7-dihydro-5H-pyrrolo[3,4-b]pyridin-2-yl)-5′-phenyltetrahydro-3′H-spiro[piperidine-4,2′-pyrrolo[2,1-b] [1,3]oxazol]-3′-one], the negative logarithm of the EC50 (pEC50) was 6.45.

Take `N#Cc1cncc([C@@H]2CC[C@H]3SC4(CCN(c5ccnc6c(F)cnn56)CC4)C(=O)N32)c1` [Example 4.112, 5-[(5′S,7a′R)-1-(3-fluoropyrazolo[1,5-a]pyrimidin-7-yl)-3′-oxotetrahydro-3′H-spiro[piperidine-4,2′-pyrrolo[2,1-b] [1,3]thiazol]-5′-yl]pyridine-3-carbonitrile]: the pEC50 is > 7.60.

Regarding `N#Cc1cnc(N2CCC3(CC2)O[C@@H]2CC[C@@H](c4ccccc4F)N2C3=O)n2ncnc12` [Example 4.242, 5-[(5′S,7a′R)-5′-(2-fluorophenyl)-3′-oxotetrahydro-1H,3′H-spiro[piperidine-4,2′-pyrrolo[2,1-b] [1,3]oxazol]-1-yl] [1,2,4]triazolo[1,5-c] pyrimidine-8-carbonitrile], the pEC50 is > 7.60.

On to `O=C1N2[C@@H](CC[C@H]2c2ccccc2)OC12CCN(c1ccnc(-c3ccccc3)n1)CC2` [Example 11.14, (5′S,7a′R)-5′-phenyl-1-(2-phenylpyrimidin-4-yl)tetrahydro-3′H-spiro[piperidine-4,2′-pyrrolo[2,1-b][1,3]oxazol]-3′-one], for which the pEC50 is 7.47.

For the compound `O=C(c1ccc(F)cc1)N1CCC2(CC1)O[C@@H]1CC[C@@H](c3cc(F)cc(F)c3)N1C2=O` [Example 6.70, (5′S,7a′R)-5′-(3,5-difluorophenyl)-1-(4-fluorobenzene-1-carbonyl)tetrahydro-3′H-spiro[piperidine-4,2′-pyrrolo[2,1-b] [1,3]oxazol]-3′-one], the pEC50 was > 7.60.

Turning to `N#Cc1ccc(C(=O)N2CCC3(CC2)O[C@@H]2CC[C@@H](c4cc(F)cc(F)c4)N2C3=O)cc1F` [Example 5.19, 4-((5′S,7a′R)-5′-(3,5-difluorophenyl)-3′-oxo-tetrahydro-3′H-spiro [piperidine-4,2′-pyrrolo-[2,1-b]oxazole]-1-carbon-yl)-2-fluorobenzonitrile], the pEC50 is 6.48.

Consider `Cc1cc(N2CCC3(CC2)O[C@@H]2CC[C@@H](c4ccccc4)N2C3=O)cs1` [Example 11.10, (5′S,7a′R)-1-(5-methylthiophen-3-yl)-5′-phenyltetrahydro-3′H-spiro[piperidine-4,2′-pyrrolo[2,1-b][1,3]oxazol]-3′-one], for which the pEC50 was 6.60.

Consider `O=C(c1cn2ccccc2n1)N1CCC2(CC1)O[C@@H]1CC[C@@H](c3cc(F)cc(F)c3)N1C2=O` [Example 5.71, (5′S,7a′R)-5′-(3,5-difluoro-phenyl)-1-(imidazo[1,2-a]-pyridine-2-carbonyl)tetra-hydro-3′H-spiro[piperidine-4,2′-pyrrolo[2,1-b]oxazol]-3′-one], for which the pEC50 was 6.81.

As for `O=C1N2[C@@H](CC[C@H]2c2cc(F)cc(F)c2)OC12CCN(c1ccc(Br)c3ncnn13)CC2` [Example 13.7, (5′S,7a′R)-1-(8-bromo-[1,2,4]triazolo[1,5-a]pyridin-5-yl)-5′-(3,5-difluorophenyl)tetrahydro-3′H-spiro[piperidine-4,2′-pyrrolo[2,1-b]oxazol]-3′-one], the pEC50 was > 7.60.

As for `Cc1nc(N2CCC3(CC2)O[C@@H]2CC[C@@H](c4cccc(F)c4)N2C3=O)ccc1C#N` [Example 4.77, 6-[(5′S,7a′R)-5′-(3-fluorophenyl)-3′-oxotetrahydro-1H,3′H-spiro[piperidine-4,2′-pyrrolo[2,1-b] [1,3]oxazol]-1-yl]-2-methylpyridine-3-carbonitrile], the pEC50 is > 7.60.

In the case of `O=C1N2[C@@H](CC[C@H]2c2ccccc2)SC12CCN(c1ccnc3c(F)cnn13)CC2` [Example 4.132, (5′S,7a′R)-1-(3-fluoropyrazolo[1,5-a]pyrimidin-7-yl)-5′-phenyltetrahydro-3′H-spiro[piperidine-4,2′-pyrrolo[2,1-b]thiazol]-3′-one], the pEC50 was > 7.60.

Take `N#Cc1cc([C@@H]2CC[C@H]3OC4(CCN(C(=O)c5ccccc5)CC4)C(=O)N32)ccc1F` [Example 17.4, 5-((5′S,7a′R)-1-benzoyl-3′-oxotetrahydro-3′H-spiro[piperidine-4,2′-pyrrolo[2,1-b]oxazol]-5′-yl)-2-fluorobenzonitrile]: the pEC50 is 6.71.

For `O=C(c1cc(F)ccc1F)N1CCC2(CC1)O[C@@H]1CC[C@@H](c3ccccc3)N1C2=O` [Example 1.11, (5′S,7a′R)-1-(2,5-difluorobenzene-1-carbonyl)-5′-phenyltetrahydro-3′H-spiro[piperidine-4,2′-pyrrolo[2,1-b] [1,3]oxazol]-3′-one], the pEC50 was > 7.60.
